These results are taken from US20240174690A1, “ANNULATED 2-AMINO-3-CYANO THIOPHENES AND DERIVATIVES FOR THE TREATMENT OF CANCER” (BOEHRINGER INGELHEIM INTERNATIONAL GMBH, priority 2021, published 2024).

Data set [1] in a line: Metabolic (microsomal) stability assay, human liver microsomes (HLM). Particulars: predicted clearance as percent of liver blood flow, 1 μM. The format is in vitro ADME. In short, it runs like this: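 LC-MS/MS tracked parent disappearance at 0, 5, 15, 30 and 60 min in NADPH-initiated incubations with 1 mg/mL human microsomal protein and 1 μM compound at 37°C, pH 7.5. First-order fits gave intrinsic clearance, which was scaled up and reported as % QH. NADPH-free controls were also run.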

The test system of the next data set is SK-CO-1 cells. Kind of data set: SK-CO-1 CTG proliferation assay (120 h) (CRC, G12V). The note with it: SK-CO-1 cells (CRC, G12V), CTG 120 h. Format: cell-based. In short, it runs like this:
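Compound exposure lasted 120 h in KRAS G12V SK-CO-1 cells seeded overnight at 500 cells/well in 10% FCS EMEM. CellTiter-Glo RLU normalised to DMSO wells gave percent viability, and a four-parameter model fit yielded IC50.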

Data set [2] concerns KRAS G12V-dependent Ba/F3 cells. Kind of data set: Ba/F3 proliferation assay, KRAS G12V.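 Also: proliferation IC50 in KRAS G12V-dependent Ba/F3 cells read by AlamarBlue.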 Format: cell-based. Particulars: AlamarBlue. In short, it runs like this: (§1)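 Proliferation of mutant-KRAS-driven Ba/F3 cells cultured without IL-3 is followed with AlamarBlue after compound addition. Curves are fitted from duplicate wells.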
Data set [3] has as its system KRAS G12C-dependent Ba/F3 cells. Kind of data set: Ba/F3 proliferation assay, KRAS G12C. Format: cell-based. Particulars: AlamarBlue. In short, it runs like this:
as §1

Data set [4] is described as follows: Caco-2 assay (permeability PappAB, PappBA, efflux ratio). The format is in vitro ADME. Particulars: human, Caco-2; efflux ratio PappBA/PappAB; 10 μM test compound, pH 7.4; read-out: Caco ER. In short, it runs like this:
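Bidirectional permeability (apical-to-basolateral and reverse) through polarized Caco-2 monolayers, BSA 0.25% on each side, 37 °C. Donor and receiver sampled at 0-90 min after 25-30 min preincubation, analysed by HPLC/MS/MS. Apparent permeabilities derived from transfer rate normalised to area and t=0 donor concentration; ER taken as PappBA over PappAB.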

Regarding `CC(C)[C@@H]1CN(c2cc(O[C@@H](C)[C@@H]3CCCN3C)nc(-c3noc4c3CCC[C@@]43CCCc4sc(N)c(C#N)c43)n2)CCN1` [II-166], the “HLM QH” value in data set [1] was below 24%. Further, the IC50 in the data set on SK-CO-1 cells (Homo sapiens) was found to be 551 nM; in data set [2] (Mus musculus, BaF3, 72 h) it was 430 nM; in data set [3] (Mus musculus, BaF3, 72 h), 386 nM.

As for `C[C@H](Oc1nc(-c2noc3c2CCC[C@@]32CCCc3sc(N)c(C#N)c32)nc(N2CCN(C)C3(CC3)C2)c1Cl)[C@@H]1C[C@@H](F)CN1C` [II-176], the “HLM QH” value in data set [1] is recorded as 63%. The IC50 came out at 2060 nM in the data set on SK-CO-1 cells (Homo sapiens); 1210 nM in data set [2] (Mus musculus, BaF3, 72 h); 1310 nM in data set [3] (Mus musculus, BaF3, 72 h).

Take `CC(=O)N1CCN(c2cc(O[C@@H](C)[C@@H]3CCCN3C)nc(-c3noc4c3CCC[C@@]43CCCc4sc(N)c(C#N)c43)n2)CC12CC2` [II-178]: the “HLM QH” value in data set [1] is below 24%. In addition, the IC50 with SK-CO-1 cells (Homo sapiens) came out at 149 nM; in data set [2] (Mus musculus, BaF3, 72 h) it was 32 nM; in data set [3] (Mus musculus, BaF3, 72 h), 31 nM.

Consider `CO[C@H]1CCN(C)[C@@H]1[C@H](C)Oc1cc(-n2ccc(CC(=O)NC(C)C)n2)nc(-c2noc3c2CCC[C@@]32CCCc3sc(N)c(C#N)c32)n1` [II-183], for which the “HLM QH” value in data set [1] was 75%. Moreover, the IC50 was 7 nM in the data set with SK-CO-1 cells (Homo sapiens); 3 nM in data set [2] (Mus musculus, BaF3, 72 h); 2 nM in data set [3] (Mus musculus, BaF3, 72 h).

Turning to `CCN1CCN(c2cc(O[C@@H](C)[C@@H]3C[C@@H](F)CN3C)nc(-c3noc4c3CCC[C@@]43CCCc4sc(N)c(C#N)c43)n2)CC12CC2` [II-185], the IC50 was 1290 nM in the data set with SK-CO-1 cells (Homo sapiens); 334 nM in data set [2] (Mus musculus, BaF3, 72 h); 305 nM in data set [3] (Mus musculus, BaF3, 72 h).

For `C[C@H](NC(=O)c1ccn(-c2cc(O[C@@H](C)[C@@H]3CCCN3C)nc(-c3noc4c3CCC[C@@]43CCCc4sc(N)c(C#N)c43)n2)n1)c1ccccn1` [II-191], the “HLM QH” value in data set [1] is 32%. The IC50 in the data set with SK-CO-1 cells (Homo sapiens) was 3 nM; in data set [3] (Mus musculus, BaF3, 72 h) it was 3 nM. The efflux ratio at 90 min, 10 μM in data set [4] came out at 2.5.

Consider `C[C@H](Oc1cc(-n2ccc(C(=O)N[C@H]3CCOC3)n2)nc(-c2noc3c2CCC[C@@]32CCCc3sc(N)c(C#N)c32)n1)[C@@H]1CCCN1C` [II-193], for which the “HLM QH” value in data set [1] is on record as 31%. Further, the IC50 turned out to be 3 nM in the data set on SK-CO-1 cells, 2 nM in data set [2] (72 h) and 2 nM in data set [3] (72 h).

As to `CO[C@H]1CCN(C)[C@@H]1[C@H](C)Oc1cc(-n2ccc(C(=O)N[C@@H](C)c3ccccn3)n2)nc(-c2noc3c2CCC[C@@]32CCCc3sc(N)c(C#N)c32)n1` [II-196], in data set [1], the “HLM QH” value is on record as 75%. Also, the IC50 in the data set on SK-CO-1 cells (Homo sapiens) worked out at 4 nM; in data set [2] (Mus musculus, BaF3, 72 h), 1 nM; in data set [3] (Mus musculus, BaF3, 72 h), 1 nM.

On to `CO[C@H]1CCN(C)[C@@H]1[C@H](C)Oc1cc(-n2ccc(C(=O)N[C@@H]3CCOC3)n2)nc(-c2noc3c2CCC[C@@]32CCCc3sc(N)c(C#N)c32)n1` [II-197], for which the “HLM QH” value in data set [1] is listed as 69%. The 50% inhibitory concentration (IC50) with SK-CO-1 cells (Homo sapiens) was 4 nM; in data set [2] (Mus musculus, BaF3, 72 h), 1 nM; in data set [3] (Mus musculus, BaF3, 72 h), 2 nM.

Consider `CO[C@H]1CCN(C)[C@@H]1[C@H](C)Oc1cc(-n2ccc(C(=O)N[C@H]3CCOC3)n2)nc(-c2noc3c2CCC[C@@]32CCCc3sc(N)c(C#N)c32)n1` [II-198], for which, in data set [1], the “HLM QH” value was 63%. Moreover, the IC50 in the data set with SK-CO-1 cells (Homo sapiens) worked out at 3 nM; in data set [2] (Mus musculus, BaF3, 72 h), 1 nM; in data set [3] (Mus musculus, BaF3, 72 h) it was 1 nM.

With `CO[C@H]1CCN(C)[C@@H]1[C@H](C)Oc1cc(-n2ccc(C(=O)N(C)C3COC3)n2)nc(-c2noc3c2CCC[C@@]32CCCc3sc(N)c(C#N)c32)n1` [II-199], the “HLM QH” value in data set [1] is recorded as 67%. The IC50 with SK-CO-1 cells (Homo sapiens) amounted to 17 nM; in data set [2] (Mus musculus, BaF3, 72 h) it was 3 nM; in data set [3] (Mus musculus, BaF3, 72 h), 3 nM.

Take `COCCNC(=O)c1ccn(-c2cc(O[C@@H](C)[C@@H]3[C@@H](OC)CCN3C)nc(-c3noc4c3CCC[C@@]43CCCc4sc(N)c(C#N)c43)n2)n1` [II-200]: the “HLM QH” value in data set [1] is reported as 65%. For the same molecule, the IC50 was determined as 5 nM in the data set on SK-CO-1 cells (Homo sapiens); 1 nM in data set [2] (Mus musculus, BaF3, 72 h); 1 nM in data set [3] (Mus musculus, BaF3, 72 h).

Take `C[C@H](Oc1cc(-n2cc3ccn([C@@H]4CCOC4)c(=O)c3n2)nc(-c2noc3c2CCC[C@@]32CCCc3sc(N)c(C#N)c32)n1)[C@@H]1CCCN1C` [II-203]: the “HLM QH” value in data set [1] was below 24%. The IC50 in the data set on SK-CO-1 cells (Homo sapiens) was 12 nM; in data set [2] (Mus musculus, BaF3, 72 h), 4 nM; in data set [3] (Mus musculus, BaF3, 72 h) it was 6 nM.

For the molecule `C[C@H](Oc1cc(-n2cc3ccn(C[C@H]4CCOC4)c(=O)c3n2)nc(-c2noc3c2CCC[C@@]32CCCc3sc(N)c(C#N)c32)n1)[C@@H]1CCCN1C` [II-204], the “HLM QH” value in data set [1] is on record as below 24%. Besides, the IC50 worked out at 14 nM in the data set with SK-CO-1 cells (Homo sapiens); 7 nM in data set [2] (Mus musculus, BaF3, 72 h); 11 nM in data set [3] (Mus musculus, BaF3, 72 h).

Consider `C[C@H](Oc1cc(-n2ccc(-c3cn([C@H]4CCOC4)nn3)n2)nc(-c2noc3c2CCC[C@@]32CCCc3sc(N)c(C#N)c32)n1)[C@@H]1CCCN1C` [II-212], for which, in data set [1], the “HLM QH” value was below 24%. Besides, the IC50 in the data set on SK-CO-1 cells (Homo sapiens) came to 4 nM; in data set [3] (Mus musculus, BaF3, 72 h), 2 nM. Also, the efflux ratio at 90 min, 10 μM in data set [4] came out at 2.9.
